± gives the expanded uncertainty stated by the source.

For this data set the following is noted: Liquid, Closed cell (Static) method.

Broadly, the vapor or sublimation pressure is the pressure of vapour in equilibrium with the condensed phase. For `FCC(F)(F)F` [1,1,1,2-tetrafluoroethane], the “vapor or sublimation pressure” value is, setting by setting: (293.15 K) 571.1 ± 5.1 kPa; (303.15 K) 771.4 ± 5.2 kPa; (313.15 K) 1018.1 ± 5.3 kPa; (323.14 K) 1316.9 ± 5.5 kPa.
For `FCF` [difluoromethane], the “vapor or sublimation pressure” value (293.15 K) is reported as 1473.2 ± 5.7 kPa, the “vapor or sublimation pressure” value (303.15 K) is recorded as 1926.7 ± 6.1 kPa, the “vapor or sublimation pressure” value (313.15 K) amounted to 2476.3 ± 6.6 kPa and the “vapor or sublimation pressure” value (323.14 K) is given as 3142.2 ± 7.2 kPa.
The matching figures for `F/C=C/C(F)(F)F` [trans-1,3,3,3-tetrafluoropropene]: 427.4 ± 5.1 kPa, 577.6 ± 5.1 kPa, 765.3 ± 5.2 kPa and 997.8 ± 5.3 kPa.

These data come from the NIST ThermoML archive (doi:10.1016/j.jct.2019.04.020).
